Data published in US11311609B2, “Regulating chimeric antigen receptors” (DANA-FARBER CANCER INSTITUTE, INC., priority 2017, dated 2022).

Tests used:
Format in all cases: cell-based
IL-2 = IL-2 ELISA of co-culture supernatants of SMART-CAR expressing Jurkat T-cells; settings: CD19 positive Raji cells; 1:3 ratio; 4 hours; 250 nM dFKBP7
Method: FIG. 35 is a histogram bar plot quantifying IL-2 levels produced from SMART-CAR expressing Jurkat T-cells after co-incubation with antigen expressing K562 cells in a 1:3 ratio (T cell to K562 cell) for 24 hours as described in Example 29. IL-2 levels were quantified by ELISA using co-culture supernatants.
FIG. 36 is a histogram bar plot quantifying IL-2 levels produced from SMART-CAR expressing Jurkat T-cells after co-incubation with CD19 positive Raji cells in a 1:3 ratio (T cells to Raji cells) for 4 hours.
FIG. 35 illustrates the specificity in activation of SMART-CAR expressing T-cells for CD19 expressing target tumor cells. SMART-CAR expressing Jurkat T-cells were co-incubated with antigen expressing K562 cells in a 1:3 ratio (T cell to K562 cell) for 24 hours. IL-2 levels were quantified by ELISA using co-culture supernatants.
FIG. 36 illustrates the chemical control of SMART-CAR expressing T-cell activation using the hetero bifunctional molecule dFKBP7. SMART-CAR expressing Jurkat T-cells were co-incubated with CD19 positive Raji cells in a 1:3 ratio.

FKBP* fused to Nluc = assay: Nluc/Fluc luciferase signal ratio assay of FKBP* degradation in 293FT cells; settings: wild type or CRBN-/- 293FT cells; indicated concentrations, 4 hours
Method: FIG. 7A and FIG. 7B are graphs measuring the activity of a panel of dFKBP heterobifunctional compounds in cells expressing FKBP* fused to Nluc. Degradation of FKBP* is measured as a signal ratio (Nluc/Fluc) between NANOluc and firefly luciferase from the same multicistronic transcript in wild type (FIG. 7A) or CRBN −/− (FIG. 7B) 293FT cells treated with indicated concentrations of dFKBPs for 4 hours. A decrease in the signal ratio indicates FKBP* (Nluc) degradation. Additional experimental details are provided in Example 4.
In an effort to identify potent and selective dFKPB heterobifunctional compounds, high throughput measurements of targeted FKBP* degradation were measured by surrogate levels of luciferase. Here, FKBP* is exogenously expressed as a multicistronic transcript with two types of luciferase: nano luciferase (NLuc) and firefly luciferase (FLuc) that allow for cell normalized quantification of FKBP* protein levels. Degradation of FKBP* is measured as a signal ratio (Nluc/Fluc) in wild type (FIG. 7A) or CRBN −/− (FIG. 7B) 293FT cells treated with indicated concentrations of dFKBPs for 4 hours.

CD19-CAR-dTAG = target: T1, CD19-CAR-dTAG (Homo sapiens, UniProt P62942+Q96SW2, F37V/H95N/M50V/V99I); assay: Immunoblot of CD19-CAR-dTAG degradation in Jurkat T-cells
T1 construct: HA; expressed in transfected cells; host or cells: Jurkat T-cells, lentiviral transduction, blasticidin selection
Method: FIG. 14A and FIG. 14B are immunoblots of cells treated with heterobifunctional compounds described in the present invention.
FIG. 15A and FIG. 15B are immunoblots of cells treated with bi-functional molecules described in the present invention.
FIG. 16 is an immunoblot of cells treated with heterobifunctional compounds described in the present invention.
At 4 and 12 hours, the dFKBP7 was washed out of the Jurkat cells. At each indicated timepoint, Jurkat cells were harvest to monitor CD19-CAR-dTAG expression levels via immunoblot analysis. FIG. 17B is the resulting immunoblot from the experimental design in FIG. 17A.
Jurkat T-cells were transduced with lentivirus expressing CD19-CAR-dTAG. Cells were selected with blasticidin and expanded.
Jurkat T-cells were engineered to express CD19-CAR-dTAG. Cells were treated with the indicated dose of dFKBP7 or dFKBP13 for 4 hours before lysates were prepared for western immunoblot analysis.
Jurkat T-cells were engineered to express CD19-CAR-dTAG. Cells were treated with 250 nM dFKBP7 or dFKBP13 for the indicated time before lysates were prepared for immunoblot analysis.
At 4 and 12 hours, the dFKBP7 was washed out of the Jurkat cells. At each indicated timepoint, Jurkat cells were harvest to monitor CD19-CAR-dTAG expression levels via immunoblot analysis.

[1] = tested on: proteins fused to mutant FKBP* with an HA tag; assay: Immunoblot of dTAG fusion proteins in MV4;11 leukemia cells; settings: indicated concentrations, 16 hours
Method: FIG. 18A and FIG. 18B are immunoblots of cells treated with heterobifunctional compounds described in the present invention. Immunoblots of MV4; 11 leukemia cells expressing indicated proteins fused to mutant FKBP* with an HA tag. Cells were treated for 16 hours with indicated concentrations of FKBP* selective heterobifunctional compounds, dFKBP7 or dFKBP13 and abundance of fusion proteins measured by western immunoblot analysis. Additional experimental details are given in Example 15.
To test the general utility of the dTAG technology across several protein types, the indicated proteins fused to the dTAG in MV4; 11 leukemia cells were expressed. Upon treatment with the indicated dFKBP bifunctional molecules (dFKBP7 and dFKBP13), targeted protein degradation was observed as measured by western blot.

FKBP*-KRASG12V = assay: Immunoblot of FKBP*-KRASG12V degradation in NIH3T3 cells; settings: NIH3T3 cells; 500 nM, indicated time
Method: FIG. 19 is an immunoblot of NIH3T3 cells expressing KRASG12V allele fused to FKBP* in the N-terminus or C-terminus. Cells were treated with 500 nM dFKBP7 for the indicated time. Cells were harvested and immunoblotted to measure degradation of FKBP*-KRASG12V and downstream surrogates of KRAS signaling (e.g. pMEK and pAKT).
(§1) Cells were harvested and immunoblotted to measure degradation of FKBP*-KRASG12V and downstream surrogates of KRAS signaling (e.g. pMEK and pAKT).
as §1, §1
Cells were treated with 500 nM dFKBP7 for the indicated time. Cells were harvested and immunoblotted to measure degradation of FKBP*-KRAS and downstream surrogates of KRAS signaling (e.g. pMEK and pAKT).
(§2) Cells were harvested and immunoblotted to measure degradation of FKBP*-KRAS and downstream surrogates of KRAS signaling (e.g. pMEK and pAKT).
as §2
To evaluate the kinetic control of targeted degradation of dTAG-KRAS, dFKBP13 was administered by increased duration. […]

T1 sequence (P62942 with tags, fused parts or gaps F37V/M50V/H95N/V99I limits assumed): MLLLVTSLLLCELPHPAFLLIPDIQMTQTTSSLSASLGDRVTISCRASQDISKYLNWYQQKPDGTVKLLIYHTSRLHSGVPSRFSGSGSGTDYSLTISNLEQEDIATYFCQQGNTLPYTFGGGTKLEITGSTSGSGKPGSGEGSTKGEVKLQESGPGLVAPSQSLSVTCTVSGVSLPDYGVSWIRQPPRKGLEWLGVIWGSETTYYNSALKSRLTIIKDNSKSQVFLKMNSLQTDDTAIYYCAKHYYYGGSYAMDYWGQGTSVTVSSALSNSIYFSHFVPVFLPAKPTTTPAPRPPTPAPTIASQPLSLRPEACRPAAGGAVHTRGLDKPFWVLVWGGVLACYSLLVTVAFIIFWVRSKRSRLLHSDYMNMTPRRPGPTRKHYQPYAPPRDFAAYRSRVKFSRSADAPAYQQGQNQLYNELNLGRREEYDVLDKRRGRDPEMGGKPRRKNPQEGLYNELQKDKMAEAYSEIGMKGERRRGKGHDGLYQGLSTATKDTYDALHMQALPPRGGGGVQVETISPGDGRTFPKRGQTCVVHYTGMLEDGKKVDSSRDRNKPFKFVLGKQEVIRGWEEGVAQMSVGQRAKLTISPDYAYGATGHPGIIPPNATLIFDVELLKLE
T1 sequence (Q96SW2 whole entry): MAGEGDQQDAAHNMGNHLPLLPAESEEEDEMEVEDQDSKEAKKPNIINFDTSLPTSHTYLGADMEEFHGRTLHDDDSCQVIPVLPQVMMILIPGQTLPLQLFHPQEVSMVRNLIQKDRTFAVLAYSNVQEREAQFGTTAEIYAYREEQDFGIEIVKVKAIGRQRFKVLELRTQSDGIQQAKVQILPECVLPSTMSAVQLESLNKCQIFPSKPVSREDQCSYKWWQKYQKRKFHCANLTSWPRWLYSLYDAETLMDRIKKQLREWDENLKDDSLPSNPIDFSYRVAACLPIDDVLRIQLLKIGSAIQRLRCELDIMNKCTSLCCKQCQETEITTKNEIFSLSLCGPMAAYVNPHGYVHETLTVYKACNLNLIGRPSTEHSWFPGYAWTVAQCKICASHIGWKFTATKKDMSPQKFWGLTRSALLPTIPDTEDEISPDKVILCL
T1 sequence (Q16531 whole entry partner): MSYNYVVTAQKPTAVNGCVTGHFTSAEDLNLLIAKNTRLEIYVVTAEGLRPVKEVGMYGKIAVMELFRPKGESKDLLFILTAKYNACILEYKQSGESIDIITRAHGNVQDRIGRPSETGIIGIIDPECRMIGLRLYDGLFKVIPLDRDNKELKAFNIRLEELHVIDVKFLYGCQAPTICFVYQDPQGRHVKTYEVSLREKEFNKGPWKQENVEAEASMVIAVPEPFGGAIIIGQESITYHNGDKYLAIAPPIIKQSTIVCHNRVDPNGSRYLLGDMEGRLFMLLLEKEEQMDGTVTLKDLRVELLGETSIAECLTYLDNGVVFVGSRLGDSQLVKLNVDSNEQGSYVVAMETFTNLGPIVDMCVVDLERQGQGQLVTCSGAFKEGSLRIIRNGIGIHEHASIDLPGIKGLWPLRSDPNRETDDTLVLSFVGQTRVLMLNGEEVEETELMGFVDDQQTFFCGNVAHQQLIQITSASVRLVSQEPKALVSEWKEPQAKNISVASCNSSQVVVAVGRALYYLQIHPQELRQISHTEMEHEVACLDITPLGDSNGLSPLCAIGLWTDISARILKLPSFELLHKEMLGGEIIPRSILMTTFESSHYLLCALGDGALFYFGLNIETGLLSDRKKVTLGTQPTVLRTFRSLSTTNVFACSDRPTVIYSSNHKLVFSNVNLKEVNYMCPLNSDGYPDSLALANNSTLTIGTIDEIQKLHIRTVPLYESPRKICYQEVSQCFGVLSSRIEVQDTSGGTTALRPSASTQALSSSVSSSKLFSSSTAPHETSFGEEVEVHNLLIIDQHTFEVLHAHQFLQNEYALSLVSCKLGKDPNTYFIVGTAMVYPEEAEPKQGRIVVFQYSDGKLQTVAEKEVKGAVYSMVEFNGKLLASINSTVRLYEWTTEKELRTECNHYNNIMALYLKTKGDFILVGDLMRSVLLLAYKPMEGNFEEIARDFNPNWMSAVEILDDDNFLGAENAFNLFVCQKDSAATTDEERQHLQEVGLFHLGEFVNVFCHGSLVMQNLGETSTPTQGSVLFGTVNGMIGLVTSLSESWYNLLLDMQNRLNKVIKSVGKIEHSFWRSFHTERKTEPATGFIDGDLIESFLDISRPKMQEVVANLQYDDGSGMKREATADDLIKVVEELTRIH

In the case of `CC[C@H](C(=O)N1CCCC[C@H]1C(=O)O[C@H](CCc1ccc(OC)c(OC)c1)c1cccc(OCC(=O)NCCCOCCOCCOCCCNC(=O)COc2cccc3c2C(=O)N(C2CCC(=O)NC2=O)C3=O)c1)c1cc(OC)c(OC)c(OC)c1` (some centres unmarked) [dFKBP7], the IL-2 production (IL-2) is reported as “completely suppressed”, the “FKBP* (Nluc) degradation, signal ratio Nluc/Fluc” value (FKBP* fused to Nluc) is reported as “effectively degrade FKBP* in a cereblon dependent manner” and the “Re-expression of CD19-CAR-dTAG protein after washout” value (CD19-CAR-dTAG; Jurkat T-cells, 250 nM for 4 hours, then washouts) is reported as “recovered”. The “Degradation of CD19-CAR-dTAG, time dependence” value (CD19-CAR-dTAG; Jurkat T-cells, 250 nM, indicated time) was “time-dependent degradation of CD19-CAR-dTAG”, the “Degradation of CD19-CAR-dTAG, dose dependence” value (CD19-CAR-dTAG; Jurkat T-cells, indicated dose, 4 hours) was “dose-dependent degradation of CD19-CAR-dTAG” and the “Rheostat chemical control of CD19-CAR-dTAG expression” value (CD19-CAR-dTAG; Jurkat cells, 250 nM at 0 and 8 hours, washed out at 4 and 12 hours) was “exquisite chemical control of CD19-CAR-dTAG protein levels allowing for modulation within hours”. The “Degradation of proteins fused to dTAG” value [1] was “degradation was observed with nanomolar concentrations” and the “Degradation of N-terminal dTAG-KRAS” value (FKBP*-KRASG12V) was “potent degradation”.
